# Results taken from patent publication US20220281886A1, “NATRIURETIC PEPTIDE RECEPTOR A AGONISTS USEFUL FOR THE TREATMENT OF CARDIOMETABOLIC DISEASES, KIDNEY DISEASE AND DIABETES” (Merck Sharp & Dohme Corp., priority 2019, published 2022).
# Target: T1, hNPRA (Homo sapiens, UniProt P16066)
# T1 construct: expressed in transfected cells
# T1 sequence (P16066 33-1061): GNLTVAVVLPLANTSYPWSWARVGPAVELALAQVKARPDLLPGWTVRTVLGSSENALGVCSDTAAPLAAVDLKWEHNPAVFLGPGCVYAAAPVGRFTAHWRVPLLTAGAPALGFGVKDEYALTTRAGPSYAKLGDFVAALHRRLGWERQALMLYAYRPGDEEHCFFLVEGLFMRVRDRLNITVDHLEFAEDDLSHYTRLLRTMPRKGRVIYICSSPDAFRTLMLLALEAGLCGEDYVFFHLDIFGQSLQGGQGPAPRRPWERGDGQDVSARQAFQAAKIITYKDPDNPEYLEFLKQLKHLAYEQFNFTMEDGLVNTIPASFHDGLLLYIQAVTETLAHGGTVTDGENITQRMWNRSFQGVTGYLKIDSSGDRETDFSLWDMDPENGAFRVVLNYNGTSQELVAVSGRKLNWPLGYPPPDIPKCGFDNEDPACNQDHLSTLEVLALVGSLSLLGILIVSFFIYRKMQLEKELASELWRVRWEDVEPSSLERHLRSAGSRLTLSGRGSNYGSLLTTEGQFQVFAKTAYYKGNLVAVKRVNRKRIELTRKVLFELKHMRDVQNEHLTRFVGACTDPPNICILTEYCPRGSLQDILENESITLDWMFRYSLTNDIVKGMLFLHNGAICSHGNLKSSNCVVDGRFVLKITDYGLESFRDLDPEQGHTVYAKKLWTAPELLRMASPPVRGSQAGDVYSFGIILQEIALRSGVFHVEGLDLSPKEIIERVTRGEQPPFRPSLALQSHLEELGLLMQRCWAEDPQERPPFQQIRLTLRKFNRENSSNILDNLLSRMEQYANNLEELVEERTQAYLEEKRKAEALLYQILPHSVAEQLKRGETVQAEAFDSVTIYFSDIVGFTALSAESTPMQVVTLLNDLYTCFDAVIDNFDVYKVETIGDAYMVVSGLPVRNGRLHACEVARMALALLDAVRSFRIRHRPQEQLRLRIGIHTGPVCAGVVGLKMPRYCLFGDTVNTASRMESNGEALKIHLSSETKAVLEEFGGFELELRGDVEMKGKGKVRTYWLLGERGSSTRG
# Assay: NPRA Functional Cell Assay (cGMP HTRF)
# Assay type: cell-based
# Conditions: Human NPRA HEK JumpIn stable cells; cGMP by HTRF after 1 hour at 37° C.; 10-point dose response
# In short: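 HEK JumpIn cells stably expressing human, rat or dog NPRA incubated 1 hour at 37° C with compound (10-point titration) in Opti-MEM buffer with 100 uM IBMX and 100 uM RO20. cGMP measured by HTRF against an on-plate calibration curve; EC50 from 4-parameter fit, positive control 10 nM rat-ANP (rat) or 50 nM h-ANP (human, dog).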
row,EC50 [nM],SMILES
1,369,"CN1CC(NC(=O)c2cccc([C@@H](CCN3CCC(O)CC3)NC(=O)c3ccc4nc5c(cc4c3)C[C@@H](C3(C)CC3)CC5)c2)C1 (racemic) [Example 68, rac-(7S)-7-(1-methylcyclopropyl)-N-[rac-(1R)-3-(4-hydroxy-1-piperidyl)-1-[3-[(1-methylazetidin-1-ium-3-yl)carbamoyl]phenyl]propyl]-5,6,7,8-tetrahydroacridine-2-carboxamide;2,2,2-trifluoroacetate]"
2,258,"CC(C)[C@]1(F)CCc2nc3c(F)cc(C(=O)N[C@H](CCN4CCC5(CC4)CC5CO)c4ccc(-c5ccnnc5)nc4)cc3cc2C1 (mixture of isomers) [Example 39, rac-(7S)-4,7-difluoro-7-isopropyl-N-[rac-(1R)-3-[2-(hydroxymethyl)-6-azoniaspiro[2.5]octan-6-yl]-1-(6-pyridazin-4-yl-3-pyridyl)propyl]-6,8-dihydro-5H-acridine-2-carboxamide;2,2,2-trifluoroacetate]"
3,375,"CC(C)[C@]1(F)CCc2nc3c(F)cc(C(=O)N[C@H](CCN4CCC5CCCCC5C4)c4ccc(-c5ccnnc5)nc4)cc3cc2C1 (mixture of isomers) [Example 42, rac-(7S)-4,7-difluoro-7-isopropyl-N-[rac-(1R)-3-(1,2,3,4,4a,5,6,7,8,8a-decahydroisoquinolin-2-ium-2-yl)-1-(6-pyridazin-4-yl-3-pyridyl)propyl]-6,8-dihydro-5H-acridine-2-carboxamide;2,2,2-trifluoroacetate]"
4,398,"CN1CC(NC(=O)c2cccc([C@@H](CCN3CCC(CC(=O)O)CC3)NC(=O)c3ccc4nc5c(cc4c3)C[C@@H](C3(C)CC3)CC5)c2)C1 (racemic) [Example 66, 2-[1-[rac-(3R)-3-[3-[(1-methylazetidin-3-yl)carbamoyl]phenyl]-3-[[rac-(7S)-7-(1-methylcyclopropyl)-5,6,7,8-tetrahydroacridine-2-carbonyl]amino]propyl]-4-piperidyl]acetic acid]"
5,338,"CC(C)[C@]1(F)CCc2nc3c(F)cc(C(=O)N[C@H](CCN4CCC[C@@H](O)C4)c4ccc(-c5ccnnc5)nc4)cc3cc2C1 (racemic) [Example 40, rac-(7S)-4,7-difluoro-7-isopropyl-N-[rac-(1R)-1-(6-pyridazin-4-yl-3-pyridyl)-3-[rac-(3R)-3-hydroxypiperidin-1-ium-1-yl]propyl]-6,8-dihydro-5H-acridine-2-carboxamide;2,2,2-trifluoroacetate]"
6,150,"CC1CCCCN1CC[C@@H](NC(=O)c1cc(F)c2nc3c(cc2c1)C[C@](F)(C(C)C)CC3)c1ccc(-c2ccnnc2)nc1 (mixture of isomers) [Example 44, rac-(7S)-4,7-difluoro-7-isopropyl-N-[rac-(1R)-3-(2-methylpiperidin-1-ium-1-yl)-1-(6-pyridazin-4-yl-3-pyridyl)propyl]-6,8-dihydro-5H-acridine-2-carboxamide;2,2,2-trifluoroacetate]"

# Continued, compound first:
row,SMILES,EC50 [nM]
1,"CC(C)[C@]1(F)CCc2nc3c(F)cc(C(=O)N[C@H](CCN4CCC(O)(C(=O)O)CC4)c4ccc(-c5ccnnc5)nc4)cc3cc2C1 [Example 13, 1-[(3R)-3-({[(7S)-4,7-difluoro-7-(1-methylethyl)-5,6,7,8-tetrahydroacridin-2-yl]carbonyl}amino)-3-(6-pyridazin-4-ylpyridin-3-yl)propyl]-4-hydroxypiperidine-4-carboxylic acid]",855
2,"CC(C)[C@]1(F)CCc2nc3c(F)cc(C(=O)N[C@H](CCN4CCC(O)CC4)c4cnc(-c5ccnnc5)c(F)c4)cc3cc2C1 [Example 20, (7S)-4,7-difluoro-N-[(1R)-1-(5-fluoro-6-pyridazin-4-ylpyridin-3-yl)-3-(4-hydroxypiperidin-1-yl)propyl]-7-(1-methylethyl)-5,6,7,8-tetrahydroacridine-2-carboxamide]",125
3,"CC(C)[C@]1(F)CCc2nc3c(F)cc(C(=O)N[C@H](CCN4CCC(O)CC4)c4ccc(N5CCOC5=O)cc4)cc3cc2C1 [Example 6, (7S)-4,7-difluoro-N-{(1R)-3-(4-hydroxypiperidin-1-yl)-1-[4-(2-oxo-1,3-oxazolidin-3-yl)phenyl]propyl}-7-(1-methylethyl)-5,6,7,8-tetrahydroacridine-2-carboxamide]",114
4,"CC(C)[C@]1(F)CCc2nc3c(F)cc(C(=O)N[C@H](CCN4CC5CC(C4)C5(O)C(F)(F)F)c4ccc(-c5ccnnc5)nc4)cc3cc2C1 (stereo partly drawn) [Example 14, (7S)-4,7-difluoro-N-[(1R)-3-[6-hydroxy-6-(trifluoromethyl)-3-azabicyclo[3.1.1]hept-3-yl]-1-(6-pyridazin-4-ylpyridin-3-yl)propyl]-7-(1-methylethyl)-5,6,7,8-tetrahydroacridine-2-carboxamide]",2090
5,"CN1CC(NC(=O)c2cccc([C@@H](CCN3CCC[C@H]3CO)NC(=O)c3ccc4nc5c(cc4c3)C[C@@H](C3(C)CC3)CC5)c2)C1 [Example 21, (S)-N-((R)-3-((S)-2-(hydroxymethyl)pyrrolidin-1-yl)-1-(3-((1-methylazetidin-3-yl)carbamoyl)phenyl)propyl)-7-(1-methylcyclopropyl)-5,6,7,8-tetrahydroacridine-2-carboxamide]",158
6,"C[Si](C)(C)[C@H]1CCc2nc3ccc(C(=O)N[C@H](CCN4CCC(O)CC4)c4ccc(N5CCOC5=O)cc4)cc3cc2C1 [Example 5, (7S)-N-{(1R)-3-(4-hydroxypiperidin-1-yl)-1-[4-(2-oxo-1,3-oxazolidin-3-yl)phenyl]propyl}-7-(trimethylsilyl)-5,6,7,8-tetrahydroacridine-2-carboxamide]",1980
7,"CN1CC(NC(=O)c2cccc([C@@H](CCN3CCC[C@H]3CO)NC(=O)c3ccc4nc5c(cc4c3)C[C@@H](C3(C(F)(F)F)CC3)CC5)c2)C1 [Example 22, (S)-N-((R)-3-((S)-2-(hydroxymethyl)pyrrolidin-1-yl)-1-(3-((1-methylazetidin-3-yl)carbamoyl)phenyl)propyl)-7-(1-(trifluoromethyl)cyclopropyl)-5,6,7,8-tetrahydroacridine-2-carboxamide]",278
8,"CC(C)[C@]1(F)CCc2nc3c(F)cc(C(=O)N[C@H](CCN4CCC5(O)CCCCC5C4)c4ccc(-c5ccnnc5)nc4)cc3cc2C1 (stereo partly drawn) [Example 15, (7S)-4,7-difluoro-N-[(1R)-3-(4a-hydroxyoctahydroisoquinolin-2(1H)-yl)-1-(6-pyridazin-4-ylpyridin-3-yl)propyl]-7-(1-methylethyl)-5,6,7,8-tetrahydroacridine-2-carboxamide]",257
9,"CC(C)[C@]1(F)CCc2nc3c(F)cc(C(=O)N[C@H](CCN4CCC5(CCCO5)CC4)c4ccc(-c5ccnnc5)nc4)cc3cc2C1 [Example 16, (7S)-4,7-difluoro-7-(1-methylethyl)-N-[(1R)-3-(1-oxa-8-azaspiro[4.5]dec-8-yl)-1-(6-pyridazin-4-ylpyridin-3-yl)propyl]-5,6,7,8-tetrahydroacridine-2-carboxamide]",343
